This is an account of results in patent US20230406865A1, “CRYSTAL FORM OF FREE BASE OF INHIBITOR CONTAINING BICYCLIC RING DERIVATIVE AND PREPARATION METHOD AND APPLICATION OF CRYSTAL FORM” (SHANGHAI HANSOH BIOMEDICAL CO., LTD., priority 2020, published 2023).

The structures appear in SMILES notation.

The target in one data set is T1, RET kinase (Homo sapiens, UniProt P07949).
T1 construct: purchased Carna 08-159
Kind of data set: HTRF kinase activity inhibition, RET wild-type. Type of data set: biochemical. The note with it: ATP at Km. An outline of the steps: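 HTRF (KinEASE-TK) kinase assay with recombinant RET wild-type, RET V804M, RET V804L and KIF5B-RET enzymes plus ATP.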
Background: Time-resolved FRET reads energy transfer from a long-lived donor to a nearby acceptor.

Data set [1] is described as follows: Balb/C mouse pharmacokinetics, oral 5 mg/kg. Type of data set: in vivo, Balb/C mice. The conditions noted are these: male, p.o. 5 mg/kg, plasma; for MRT: read-out: Average residence time MRT; for Cmax: read-out: Blood concentration Cmax; for AUC(0-t): read-out: Curve area AUC0-t; for AUC(0-inf): read-out: Curve area AUC0-∞; for half-life: read-out: Half-life t1/2 (converted); for Tmax: read-out: Peak time tmax. An outline of the steps:
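Male Balb/C mice (6 per compound) were fasted overnight and dosed in 0.5% CMC-Na (1% Tween80) solution or suspension. EDTA-K2 plasma was sampled at 0, 0.5, 1, 2, 4, 6, 8 and 24 h. Compound levels were measured by LC/MS/MS after acetonitrile precipitation, and PK parameters were derived from the plasma profiles.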

For the next data set, the target named is T2, KDR kinase (Homo sapiens, UniProt P35968).
T2 construct: purchased Carna 08-191
T2 sequence (P35968 20-1356): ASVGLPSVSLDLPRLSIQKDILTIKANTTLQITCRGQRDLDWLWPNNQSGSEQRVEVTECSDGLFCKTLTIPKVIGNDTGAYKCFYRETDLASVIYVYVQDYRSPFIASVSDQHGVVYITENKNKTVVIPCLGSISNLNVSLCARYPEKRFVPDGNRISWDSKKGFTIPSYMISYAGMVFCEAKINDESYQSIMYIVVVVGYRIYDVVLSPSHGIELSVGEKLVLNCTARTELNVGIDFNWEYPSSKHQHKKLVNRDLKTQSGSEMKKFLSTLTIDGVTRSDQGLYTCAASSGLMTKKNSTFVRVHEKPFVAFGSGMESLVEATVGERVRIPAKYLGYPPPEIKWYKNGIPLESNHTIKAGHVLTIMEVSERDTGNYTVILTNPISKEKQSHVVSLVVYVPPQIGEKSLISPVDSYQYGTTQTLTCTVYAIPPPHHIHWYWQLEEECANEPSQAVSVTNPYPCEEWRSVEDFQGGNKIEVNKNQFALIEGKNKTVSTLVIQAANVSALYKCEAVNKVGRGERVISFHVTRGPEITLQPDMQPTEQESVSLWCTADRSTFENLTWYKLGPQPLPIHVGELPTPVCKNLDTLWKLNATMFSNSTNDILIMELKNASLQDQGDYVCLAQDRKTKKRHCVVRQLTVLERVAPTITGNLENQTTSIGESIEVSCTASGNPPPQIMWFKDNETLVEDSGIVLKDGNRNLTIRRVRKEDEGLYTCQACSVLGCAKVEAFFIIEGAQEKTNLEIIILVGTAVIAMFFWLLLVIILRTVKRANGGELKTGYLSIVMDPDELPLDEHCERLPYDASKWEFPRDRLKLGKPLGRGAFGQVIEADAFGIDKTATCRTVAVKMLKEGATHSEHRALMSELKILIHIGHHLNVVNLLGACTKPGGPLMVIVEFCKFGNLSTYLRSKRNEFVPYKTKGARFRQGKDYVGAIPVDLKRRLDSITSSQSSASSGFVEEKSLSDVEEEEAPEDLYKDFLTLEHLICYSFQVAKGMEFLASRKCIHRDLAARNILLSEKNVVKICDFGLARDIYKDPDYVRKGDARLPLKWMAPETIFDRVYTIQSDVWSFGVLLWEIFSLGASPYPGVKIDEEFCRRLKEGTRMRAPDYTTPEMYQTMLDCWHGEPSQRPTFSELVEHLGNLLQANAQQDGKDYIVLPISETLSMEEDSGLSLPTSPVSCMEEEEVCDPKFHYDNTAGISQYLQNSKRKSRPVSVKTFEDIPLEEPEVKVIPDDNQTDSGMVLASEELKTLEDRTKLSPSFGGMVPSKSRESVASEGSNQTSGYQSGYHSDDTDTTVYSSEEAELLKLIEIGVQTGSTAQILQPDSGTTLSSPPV
Kind of data set: HTRF kinase activity inhibition, KDR. Type of data set: biochemical. The note with it: for IC50: HTRF, ATP at Km; for Ratio (KDR/RET): KDR IC50 / RET IC50. The procedure, abridged:
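Inhibition of KDR kinase activity measured by homogeneous time-resolved fluorescence with a tyrosine-kinase KinEASE substrate kit and ATP.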

For another data set, the target named is T3, Ba/F3 KIF5B-RET cells (Homo sapiens, UniProt P07949).
T3 construct: fused on or other part: P33176 (Kinesin-1 heavy chain)
T3 sequence (P07949 whole entry, change not shown, the tested form may be a part): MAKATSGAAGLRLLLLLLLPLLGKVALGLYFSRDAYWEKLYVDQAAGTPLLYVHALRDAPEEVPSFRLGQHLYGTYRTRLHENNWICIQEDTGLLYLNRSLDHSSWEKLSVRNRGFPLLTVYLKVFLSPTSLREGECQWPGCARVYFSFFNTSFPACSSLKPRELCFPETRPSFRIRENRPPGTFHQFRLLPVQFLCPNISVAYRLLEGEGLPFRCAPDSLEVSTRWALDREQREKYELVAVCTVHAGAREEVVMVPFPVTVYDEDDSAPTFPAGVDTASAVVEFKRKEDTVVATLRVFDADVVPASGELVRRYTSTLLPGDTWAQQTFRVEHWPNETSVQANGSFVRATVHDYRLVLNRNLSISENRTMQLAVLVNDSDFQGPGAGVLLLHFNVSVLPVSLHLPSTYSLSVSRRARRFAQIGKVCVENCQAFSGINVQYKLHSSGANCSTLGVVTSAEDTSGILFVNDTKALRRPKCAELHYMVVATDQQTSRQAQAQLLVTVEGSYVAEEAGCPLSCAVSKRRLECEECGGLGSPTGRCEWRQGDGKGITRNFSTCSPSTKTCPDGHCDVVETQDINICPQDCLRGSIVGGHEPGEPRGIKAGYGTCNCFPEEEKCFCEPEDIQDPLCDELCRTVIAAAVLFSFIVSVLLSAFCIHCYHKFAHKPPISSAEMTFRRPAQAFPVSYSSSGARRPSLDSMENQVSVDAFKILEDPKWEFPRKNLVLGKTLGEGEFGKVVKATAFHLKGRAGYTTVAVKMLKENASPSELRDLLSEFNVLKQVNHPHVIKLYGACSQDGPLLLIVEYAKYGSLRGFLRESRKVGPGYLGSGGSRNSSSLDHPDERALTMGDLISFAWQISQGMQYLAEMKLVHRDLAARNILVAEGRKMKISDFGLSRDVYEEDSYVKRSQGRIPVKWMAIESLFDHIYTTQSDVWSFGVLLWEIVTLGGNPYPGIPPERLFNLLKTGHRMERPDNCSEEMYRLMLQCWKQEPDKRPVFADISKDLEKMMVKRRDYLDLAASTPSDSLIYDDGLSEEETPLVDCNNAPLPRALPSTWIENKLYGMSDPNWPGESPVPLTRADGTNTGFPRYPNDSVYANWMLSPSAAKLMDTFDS
Nature of the data set: Inhibition of proliferation of Ba/F3 KIF5B-RET cells (CellTiter-Glo). Type of data set: cell-based. The note with it: 72 to 144 hours. An outline of the steps: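 Cells plated overnight, then exposed to compound dilutions in DMSO/medium at 37° C, 5% CO2 for 72 to 144 hours. Viability read by CellTiter-Glo luminescence; IC50 from inhibition rates fitted by nonlinear regression.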

Data set [2] relates to TT cells (MTC, RET C634W). Kind of data set: Inhibition of proliferation of TT cells (CellTiter-Glo, 72 h). Type of data set: cell-based. The note with it: Homo sapiens. The procedure, abridged:
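TT cells seeded overnight, then exposed to compound dilutions for 72 h at 37 °C, 5% CO2, with a solvent control. Viability read by CellTiter-Glo luminescence; IC50 from nonlinear regression of inhibition rate versus concentration.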
(ATP-based viability assays read luminescence as a measure of living cells.)

For a further data set, the target named is T4, RET M918T (Homo sapiens, UniProt P07949, M918T).
T4 construct: purchased Carna 08-508
T4 sequence (P07949 29-1114 M918T): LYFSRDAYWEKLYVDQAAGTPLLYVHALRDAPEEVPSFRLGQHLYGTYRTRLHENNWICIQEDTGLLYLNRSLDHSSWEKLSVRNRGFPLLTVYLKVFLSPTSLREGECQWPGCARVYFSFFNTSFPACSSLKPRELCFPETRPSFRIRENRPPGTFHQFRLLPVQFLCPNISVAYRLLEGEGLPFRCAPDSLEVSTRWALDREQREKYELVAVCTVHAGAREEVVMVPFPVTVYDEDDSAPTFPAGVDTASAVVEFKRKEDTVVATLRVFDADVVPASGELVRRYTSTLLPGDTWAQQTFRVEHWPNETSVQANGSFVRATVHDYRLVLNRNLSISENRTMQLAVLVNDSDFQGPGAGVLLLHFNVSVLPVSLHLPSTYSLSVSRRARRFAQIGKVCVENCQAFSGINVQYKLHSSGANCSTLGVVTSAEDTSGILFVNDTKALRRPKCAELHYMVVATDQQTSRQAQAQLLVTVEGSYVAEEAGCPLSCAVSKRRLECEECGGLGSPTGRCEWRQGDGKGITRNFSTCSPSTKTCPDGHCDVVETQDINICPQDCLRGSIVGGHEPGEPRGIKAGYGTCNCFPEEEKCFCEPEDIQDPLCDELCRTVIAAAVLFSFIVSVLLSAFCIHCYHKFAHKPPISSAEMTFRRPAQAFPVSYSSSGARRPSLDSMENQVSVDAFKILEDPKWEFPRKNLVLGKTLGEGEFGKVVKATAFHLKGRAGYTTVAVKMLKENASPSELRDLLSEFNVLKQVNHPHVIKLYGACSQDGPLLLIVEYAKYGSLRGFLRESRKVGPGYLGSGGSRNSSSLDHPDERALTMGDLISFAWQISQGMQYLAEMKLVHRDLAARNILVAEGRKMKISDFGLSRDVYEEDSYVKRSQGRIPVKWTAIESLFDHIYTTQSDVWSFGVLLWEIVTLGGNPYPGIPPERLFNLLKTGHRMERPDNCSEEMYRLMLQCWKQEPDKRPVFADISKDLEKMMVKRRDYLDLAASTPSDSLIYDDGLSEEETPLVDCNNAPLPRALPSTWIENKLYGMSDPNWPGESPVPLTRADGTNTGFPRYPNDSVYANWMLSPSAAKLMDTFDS
Nature of the data set: HTRF kinase activity inhibition, RET M918T. It counts as biochemical. The conditions noted are these: ATP at Km. The text has this:
2.2 Experimental Reagents: • RET enzyme was purchased from Carna Company, and the article number was 08-159; • RET M918T enzyme was purchased from Carna Company, and the article number was 08-508; • KIF5B-RET was purchased from SignalChem Company, the article number was R02-19FG-05; • CCDC6-RET was purchased from SignalChem Company, the article number was R02-19BG-05; • RET V804M enzyme was purchased from Thermofisher Company, and the article number was PV6223; • RET V804L enzyme was purchased from Thermofisher Company, and the article number was PV4397; • HTRF KinEASE-TK kit was purchased from Cisbio Company, and the article number was 62TK0PEC; • ATP was purchased from Thermofisher Company, and the article number was PV3227; • 384-well plate was purchased from PerkinElmer Company, and the article number was 6007290.
In this experiment, a homogeneous time-resolved fluorescence (HTRF) method was used for the detection of compounds on RET kinase activity.

Data set [3] concerns subcutaneous transplanted tumor of Ba/F3 KIF5B-RET cells. Nature of the data set: Tumor suppression on Ba/F3 KIF5B-RET transplanted tumor model. Type of data set: in vivo, BALB/c nude mice. On the procedure:
Ba/F3 KIF5B-RET cells were removed from the cell bank, resuscitated and added to RPMI1640 medium (RPMI1640+10% FBS+1% Glu+1% P/S), then cultured in a CO2 incubator (incubator temperature was 37° C., CO2 concentration was 5%), and when the cell number expanded to the required number for in vivo inoculation, Ba/F3 KIF5B-RET cells were collected. The cells were counted with an automatic cell counter, resuspended with PBS according to the count results, made into a cell suspension (density was 2×10^7/mL), and placed in an ice box for use.
Female BALB/c nude mice aged 6-8 weeks were used, weighing about 18-22 g. Mice were reared in SPF animal room, and were reared in a single cage with 5 mice in each cage. All cages, bedding and water were sterilized at high temperature before use, and all animals were allowed to eat and drink freely. Nude mice were labeled with disposable universal ear tags for mice and rats before the start of the experiment, and the skin of the inoculation site was disinfected with 75% medical alcohol before inoculation. 0.1 mL (containing 2*10^6 cells) of Ba/F3 KIF5B-RET cells were inoculated subcutaneously on the right back of each mouse. Group administration was initiated when the tumor volume reached 60-200 mm^3, with 5 mice in each group. Each test compound was administered orally twice a day for 14 days. The tumor volume and the weight of mice were measured twice a week, and the tumor TGI (%) was calculated.
The tumor volume (mm^3) was calculated as V=0.5*D*d*d, where D and d were the long and short diameters of the tumor, respectively.
When there was no tumor regression, TGI (%)=[(1-(mean tumor volume at the end of the administration in a treatment group−mean tumor volume at the start of administration in the treatment group))/(mean tumor volume at the end of treatment in the solvent control group−mean tumor volume at the start of treatment in the solvent control group)]×100%.
When there was tumor regression, TGI (%)=[1-(mean tumor volume at the end of administration in a treatment group−mean tumor volume at the beginning of administration in the treatment group)/mean tumor volume at the beginning of administration in the treatment group]×100%.

T1 sequence (P07949 29-1114): as the sequence (P07949 29-1114 M918T) above, with T890M counted along it

The term IC50 denotes the concentration that inhibits the measured activity by half. In general, MRT refers to a mean duration of stay, worked out from the concentration-time curve. As usually defined, the Tmax is the time from dosing to the highest level. On RET kinase, `COc1ccc(CN2C3CC2CN(c2ccc(-c4cc(OCC(C)(C)C#N)cn5ncc(C#N)c45)cn2)C3)cn1` [Embodiment 9, 6-(2-Cyano-2-methylpropoxy)-4-(6-(6-((6-methoxypyridin-3-yl)methyl)-3,6-diazabicyclo[3.1.1]heptan-3-yl)pyridin-3-yl)pyrazolo[1,5-a]pyridine-3-carbonitrile] registered an IC50 of 0.76 nM. Moreover, in data set [1], the MRT amounted to 5.84 h, the Cmax amounted to 1920 ng/mL, the AUC(0-t) turned out to be 16100 ng·h/mL and the AUC(0-inf) was found to be 16400 ng·h/mL. Also, in data set [1], the half-life was 4.2 h and the time to peak (Tmax) stood at 0.5 h. Moreover, on KDR kinase, the concentration for half-maximal inhibition (IC50) amounted to 70 nM and the “Ratio (KDR/RET)” value came out at 92. The 50% inhibitory concentration (IC50) at Ba/F3 KIF5B-RET cells was 28.9 nM. In addition, in data set [2], the IC50 was 29.3 nM.

In the case of `COc1ccc(CN2C3CC2CN(c2ccc(-c4cc(C#CC(C)(C)N)cn5ncc(C#N)c45)cn2)C3)cn1` [Embodiment 17, 6-(3-Amino-3-methylbut-1-yn-1-yl)-4-(6-(6-((6-methoxypyridin-3-yl)methyl)-3,6-diazabicyclo[3.1.1]heptan-3-yl)pyridin-3-yl)pyrazolo[1,5-a]pyridine-3-carbonitrile], the IC50 stood at 0.39 nM at RET kinase, 8.2 nM against KDR kinase, 0.38 nM against RET M918T and 13.1 nM in data set [2]. Moreover, at KDR kinase, the “Ratio (KDR/RET)” value is recorded as 21.

Consider `COc1ncc(CN2C3CC2CN(c2ccc(-c4cc(OCC5(C#N)CC5)cn5ncc(C#N)c45)cn2)C3)cc1F` [Embodiment 55, 6-((1-Cyanocyclopropyl)methoxy)-4-(6-(6-((5-fluoro-6-methoxypyridin-3-yl)methyl)-3,6-diazabicyclo[3.1.1]heptan-3-yl)pyridin-3-yl)pyrazolo[1,5-a]pyridine-3-carbonitrile], for which inhibition at RET kinase was half-maximal at 0.31 nM (IC50). Besides, in data set [1], the MRT was 6.51 h, the Cmax worked out at 1940 ng/mL, the AUC(0-t) was 21600 ng·h/mL and the AUC(0-inf) was determined as 22100 ng·h/mL. In data set [1], the half-life was 4.26 h and the time of peak concentration (Tmax) came out at 2 h. Moreover, at KDR kinase, half-maximal inhibition (IC50) was put at 37.5 nM and the “Ratio (KDR/RET)” value came to 121. At Ba/F3 KIF5B-RET cells, the IC50 was 19.6 nM. For the same compound, the IC50 in data set [2] came out at 28.5 nM.

Turning to `COc1ncc(CN2C3CC2CN(c2ccc(-c4cc(OCC5(C#N)CCOCC5)cn5ncc(C#N)c45)cn2)C3)cc1F` [Embodiment 60, 6-((4-Cyanotetrahydro-2H-pyran-4-yl)methoxy)-4-(6-(6-((5-fluoro-6-methoxypyridin-3-yl)methyl)-3,6-diazabicyclo[3.1.1]heptan-3-yl)pyridin-3-yl)pyrazolo[1,5-a]pyridine-3-carbonitrile], at RET kinase, the concentration for half-maximal inhibition (IC50) worked out at 0.58 nM. In addition, in data set [1], the MRT came out at 5.56 h, the Cmax came out at 3080 ng/mL, the AUC(0-t) is 28000 ng·h/mL and the AUC(0-inf) worked out at 28200 ng·h/mL. Further, in data set [1], the half-life was 3.26 h and the Tmax was found to be 0.5 h. Moreover, on KDR kinase, the concentration for half-maximal inhibition (IC50) came out at 257 nM and the “Ratio (KDR/RET)” value is on record as 445. The half-maximal inhibitory concentration (IC50) at Ba/F3 KIF5B-RET cells was determined as 18 nM. In data set [2], the IC50 was found to be 28.4 nM.

The compound `C#CC(C)(O)COc1cc(-c2ccc(N3CC4CC(C3)N4Cc3ccc(OC)nc3)nc2)c2c(C#N)cnn2c1` (stereo not drawn) [Embodiment 62, 6-((2-Hydroxy-2-methylbut-3-yn-1-yl)oxy)-4-(6-(6-((6-methoxypyridin-3-yl)methyl)-3,6-diazabicyclo[3.1.1]heptan-3-yl)pyridin-3-yl)pyrazolo[1,5-a]pyridine-3-carbonitrile] displayed a half-inhibitory concentration (IC50) at RET kinase of 0.48 nM. Further, in data set [1], the mean residence time MRT is 4.07 h, the Cmax was 2820 ng/mL, the AUC(0-t) was 13800 ng·h/mL and the AUC(0-inf) stood at 13800 ng·h/mL. In addition, in data set [1], the half-life was 2.4 h and the time of peak concentration (Tmax) was 0.5 h. In addition, at KDR kinase, the IC50 worked out at 35.2 nM and the “Ratio (KDR/RET)” value is given as 73. In data set [3] (10 mg/kg oral twice a day), the “Tumor volume (Mean ± SD) Day 0” value amounted to 100.24 ± 27.85 mm^3, the “TGI (%) Day 14” value is listed as 89.74% and the “Tumor volume (Mean ± SD) Day 14” value came out at 247.52 ± 85.65 mm^3.

Turning to `C#C[C@](C)(O)COc1cc(-c2ccc(N3CC4CC(C3)N4Cc3cnc(OC)c(F)c3)nc2)c2c(C#N)cnn2c1` [Embodiment 65, 4-(6-(6-((5-Fluoro-6-methoxypyridin-3-yl)methyl)-3,6-diazabicyclo[3.1.1]heptan-3-yl)pyridin-3-yl)-6-(((S)-2-hydroxy-2-methylbut-3-yn-1-yl)oxy)pyrazolo[1,5-a]pyridine-3-carbonitrile], at RET kinase, the IC50 was found to be 0.33 nM. In addition, in data set [1], the mean residence time MRT stood at 5.24 h, the Cmax turned out to be 2400 ng/mL, the AUC(0-t) was found to be 20200 ng·h/mL and the AUC(0-inf) came to 20300 ng·h/mL. In data set [1], the half-life was 3.05 h and the Tmax came to 2 h. Also, on KDR kinase, the half-maximal inhibitory concentration (IC50) stood at 14.5 nM and the “Ratio (KDR/RET)” value is 44. In data set [3] (10 mg/kg oral twice a day), the “Tumor volume (Mean ± SD) Day 0” value was determined as 100.40 ± 29.77 mm^3, the “TGI (%) Day 14” value was found to be 87.71% and the “Tumor volume (Mean ± SD) Day 14” value amounted to 276.69 ± 106.21 mm^3. The IC50 on Ba/F3 KIF5B-RET cells was found to be 7.03 nM. Besides, in data set [2], the IC50 came out at 12.7 nM.

`CC1(NC(=O)c2ncccc2Cl)CCN(c2ccc(-c3cc(OCC4(C#N)CC4)cn4ncc(C#N)c34)cn2)CC1` [Embodiment 92, 3-Chloro-N-(1-(5-(3-cyano-6-((1-cyanocyclopropyl)methoxy)pyrazolo[1,5-a]pyridin-4-yl)pyridin-2-yl)-4-methylpiperidin-4-yl)picolinamide] displayed an IC50 on RET kinase of 0.85 nM. Besides, in data set [1], the mean residence time (MRT) worked out at 2.85 h, the Cmax was 9340 ng/mL, the AUC(0-t) came out at 24500 ng·h/mL and the AUC(0-inf) was determined as 24500 ng·h/mL. Besides, in data set [1], the half-life was 1.7 h and the Tmax amounted to 0.5 h. Moreover, on KDR kinase, the IC50 was 185 nM and the “Ratio (KDR/RET)” value is 218. Also, in data set [3] (30 mg/kg oral twice a day), the “Tumor volume (Mean ± SD) Day 0” value is recorded as 133.41 ± 18.82 mm^3, the “TGI (%) Day 14” value is on record as 126.35% and the “Tumor volume (Mean ± SD) Day 14” value is 98.26 ± 33.71 mm^3. For the same compound, at Ba/F3 KIF5B-RET cells, the half-inhibitory concentration (IC50) was determined as 32.1 nM. In addition, the IC50 in data set [2] was found to be 27.4 nM.
